In brackets after ≈: the same amount, converted by molar mass. Blank lines part the entries; values can stand above or below the compound they belong to. Numbered stars: 1 amine (or outer) side, 2 acyl side, 3 side chain; on linkers, the order of the positions; unused ones are H or OH. Peptide text beside a SMILES is read from it. * marks the point of attachment. C18 diacid = O=C(O)CCCCCCCCCCCCCCCCC(=O)*; γGlu = O=C(O)[C@H](CCC(=O)[*:2])N[*:1]; C14 diacid = O=C(O)CCCCCCCCCCCCC(=O)*; AEEA = NCCOCCOCC(=O)O
Assays:
[1] = Assay (X) pK, T½ in rat; format: in vivo, Sprague Dawley rats
Description: Assay (X)—pK—Determination of T½ in Rat
Pharmacokinetic (PK) studies rats were conducted in order to determine the T½ of mimylin peptide after i.v. and s.c. administration.
T½ values of the mimylin derivates of the invention is determined by pharmacokinetic studies in Sprague Dawley male rats, from Taconic Europe and the principles of laboratory animal care are followed.
An acclimatisation period of approximately 7 days was allowed before the animals entered the study. At start of the acclimatisation period the rats were in the weight range of 250-400 g.
The studies were conducted in an animal room which was illuminated to give a cycle of approximately 12 hours light and 12 hours darkness. The animals were group housed and had food and water ad lib. The animals were weighed on the days of dosing.
In the present studies the test substances were administered subcutaneously or intravenously in approximately 20 nmol/kg dose. The animals received a single subcutaneous injection to the neck for subtaneous administration or directly into the tail vein for intravenous administration. Each test substance was given to typically three but in some cases two or four animals.
A full plasma concentration-time profile, employing 8-10 sampling points, was obtained from each animal. In example blood samples were collected according to the following schedule: After subcutaneous or intravenous administration:
At each sampling time, 0.08 to 0.10 ml of blood was drawn from each animal. The blood samples were taken in the sublingual vein via venous puncture and the use of a capillary tube.
The blood samples were stabilised with EDTA. Blood samples were kept on ice for max 20 min. before centrifugation. Plasma was separated using centrifugation (i.e. at 4° C., 10 min., 1500G) and was immediately transferred to Micronic tubes or PCR plates. Approximately 40 μl plasma was transferred and was stored at −20° C. until assayed. The plasma samples were assayed for the content of mimylin compound by LCMS
The plasma concentration-time profiles were analysed by a non-compartmental pharmacokinetic analysis (NCA) using Phoenix WinNonlin 6.3 (Pharsight Inc., Mountain View, Calif., USA). NCA was performed using the individual plasma concentration-time profiles from each animal. T½ is the terminal half-life=In2/λz and was determined from λz, the first order rate constant associated with the terminal (log-linear) portion of the curve, estimated by linear regression of time vs. log concentration.

[2] = Assay (IV) determination of solubility; format: physicochemical
Description: Assay (IV)—Determination of Solubility
The mimylin peptide was dissolved in water at ˜500 nmol/ml and mixed 1:1 with a series of buffers (100 mM glycylglycine pH 3.0, 100 mM glycylglycine pH 4.0, 100 mM glycylglycine pH 5.0, 100 mM bistrispropane pH 6.0, 100 mM bistrispropane pH 6.5, 100 mM bistrispropane pH 7.0, 100 mM bistrispropane pH 7.5, 100 mM bistrispropane pH 8.0).

[3] = molecular target: T1, human calcitonin (a) receptor, BHK570 cells (Homo sapiens, UniProt P30988); assay: Assay (II)b functional CRE-luciferase assay without albumin, human calcitonin receptor; format: cell-based; details: Tested without HSA; read-out: hCTR funct. EC50
T1 construct: host or cells: BHK570
T1 sequence (P30988 25-474): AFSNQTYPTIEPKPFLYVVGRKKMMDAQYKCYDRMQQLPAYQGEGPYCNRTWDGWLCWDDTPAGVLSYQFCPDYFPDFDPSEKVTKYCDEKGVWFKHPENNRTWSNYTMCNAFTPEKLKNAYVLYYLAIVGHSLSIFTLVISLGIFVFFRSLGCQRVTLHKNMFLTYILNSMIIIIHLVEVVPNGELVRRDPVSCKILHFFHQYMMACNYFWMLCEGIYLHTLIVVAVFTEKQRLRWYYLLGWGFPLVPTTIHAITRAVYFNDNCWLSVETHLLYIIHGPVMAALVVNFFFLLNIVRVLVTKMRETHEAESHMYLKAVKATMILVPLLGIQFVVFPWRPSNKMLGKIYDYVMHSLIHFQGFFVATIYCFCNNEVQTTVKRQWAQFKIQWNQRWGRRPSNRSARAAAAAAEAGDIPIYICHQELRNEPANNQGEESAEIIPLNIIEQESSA
Text: (§1) Assay(II)b—Human Calcitonin and Amylin Receptor Assay without Albumin
(§2) 1. Luciferase Assay Outline
(§3) Activation of calcitonin and amylin (co-expression of calcitonin receptor and receptor activity modifying proteins (RAMP)) receptors lead to increased intracellular concentrations of cAMP. Consequently, transcription is activated by promoters containing multiple copies of the cAMP response element (CRE). It is thus possible to measure amylin activity by the use of a CRE luciferase reporter gene introduced into BHK cells also expressing calcitonin or amylin receptors.
(§4) 2. Construction of Calcitonin (a)—and Amylin 3(a)—Receptor/CRE-Luc Cell Line.
(§5) A BHK570 cell line was stably transfected with the human calcitonin receptor and a CRE-responsive luciferase reporter gene (Hollex-1 cell line, obtained from ZymoGenetics described in U.S. Pat. No. 5,622,839). The cell line was further transfected with RAMP-3, using standard methods. This turns the calcitonin receptor into an amylin 3(a) receptor. Methotrexate, Neomycin, and Hygromycin are selection markers for luciferase, the calcitonin receptor, and RAMP-3, respectively. To prepare the batches of frozen cells used in the luciferase assay described in the section below, the cells were cultured in growth medium (DMEM with 10% FBS, 1% Pen/Strep and 1 mM Napyruvate). […] Cells at approximately 80-90% confluence were washed with PBS and loosened from the plates with Versene. After centrifugation (2 min, 1300 rpm, in a Centrion Scientific centriuge C2 series with a BRK 5510 rotor head), the cell pellet was dissolved in 10% DMSO, 30% FBS and 60% growth medium and frozen (−80° C.) until utilization.
(§6) The day before the experiment, BHK calcitonin (a) receptor- or amylin 3(a)-receptor/CRE-luc cells were thawed, washed twice, and seeded in 40 μl growth medium on white 384 well culture plates (4.000 cells/well). On the assay day, the cells were washed 3 times in assay media (Dulbecco media W/o phenol red, 500 ml (Gibco, 11880-028); 0.1% ovalbumin; 10 mM Hepes pH 7.4; 1× Glutamin; 1% Pen/Strep). Then, 30 μl/well of sample diluted in assay buffer was added. After 3 hours of incubation at 37° C. and 5% CO2, the reaction was terminated by adding 30 μl/well SteadyLite Plus™. The plates were shaken at 300 rpm for 5 min at RT. Then, the plates were sealed and incubated at room temperature for 30 minutes. Finally, luminescence was tested on a TopCounter (Packard) in SPC (single photon counting) mode.
(§7) Additional Comment Regarding Use of Data Retrieved Via this Method
(§8) For the same reasons, measurements made in Assay IIa should not be compared in Assay IIb.

[4] = molecular target: T2, human amylin 3(a) receptor (human calcitonin receptor + RAMP-3), BHK570 cells (Homo sapiens, UniProt O60896+P30988); assay: Assay (II)b functional CRE-luciferase assay without albumin, human amylin receptor; format: cell-based; details: Tested without HSA; read-out: hAmylin-R funct. EC50
T2 construct: host or cells: BHK570
Text: as §1, §2, §3, §4, §5, §6, §7, §8

[5] = molecular target: T1, human calcitonin (a) receptor, BHK570 cells; assay: Assay (II)a functional CRE-luciferase assay with albumin, human calcitonin receptor; format: cell-based; details: Tested with HSA; read-out: hCTR funct. EC50
Text: Assay(II)a—Human Calcitonin and Amylin Receptor Assay
as §2, §3, §4
A BHK570 cell line was stably transfected with the human calcitonin receptor and a CRE-responsive luciferase reporter gene. The cell line was further transfected with RAMP-3, using standard methods. This turns the calcitonin receptor into an amylin 3(a) receptor. Methotrexate, Neomycin, and Hygromycin are selection markers for luciferase, the calcitonin receptor, and RAMP-3, respectively.
To perform activity assays, BHK calcitonin (a) receptor- or amylin 3(a)-receptor/CRE-luc cells were seeded in white 96 well culture plates at a density of about 20.000 cells/well. […] After incubation overnight at 37° C. and 5% CO2, the growth medium was replaced by 50 μl/well assay medium (DMEM (without phenol red), Glutamax™, 10% FBS, and 10 mM Hepes, pH 7.4). Further, 50 μl/well of standard or sample in assay buffer were added.
After 3 hours incubation at 37° C. and 5% CO2, the assay medium with standard or sample were removed and replaced by 100 μl/well PBS. Further, 100 μl/well LucLite™ was added. The plates were sealed and incubated at room temperature for 30 minutes. Finally, luminescence was tested on a TopCounter (Packard) in SPC (single photon counting) mode.

[6] = molecular target: T3, human amylin receptor (human calcitonin receptor + human RAMP3), BHK tk'ts 13 cells (Homo sapiens, UniProt O60896+P30988); assay: Assay (Va) binding to the human amylin receptor (whole cell); details: read-out: hAmylin-R binding IC50
T3 construct: expressed in transfected cells; host or cells: BHK tk'ts 13
Description: The day before the assay the cells were Seeded into Poly-D-Lysin coated 384W Opaque White, BD BioCoat plates (10000 cells/well) and Incubated overnight at 37° C., 5% CO2, 95% humidity.

T3 sequence (O60896 24-148, one chain of several): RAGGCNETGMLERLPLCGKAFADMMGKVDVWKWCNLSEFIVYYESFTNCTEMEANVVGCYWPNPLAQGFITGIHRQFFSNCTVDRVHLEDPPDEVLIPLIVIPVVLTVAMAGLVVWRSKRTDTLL
T2 sequence (O60896 24-148, one chain of several): as above

half-life ([1]; male, Sprague Dawley, plasma, sc, 20 nmol/kg): 1 h
Compound: CC(C)C[C@H](NC(=O)[C@H](CCCCN)NC(=O)CNC(=O)[C@H](CC(C)C)NC(=O)[C@@H](NC(=O)[C@@H]1CSSC[C@H](N)C(=O)N[C@@H](CO)C(=O)N[C@@H](CC(N)=O)C(=O)N[C@@H](CC(C)C)C(=O)N[C@@H](CO)C(=O)N[C@@H]([C@@H](C)O)C(=O)N1)C(C)C)C(=O)N[C@@H](CO)C(=O)N[C@@H](CCC(N)=O)C(=O)N[C@@H](CCC(=O)O)C(=O)N[C@@H](CC(C)C)C(=O)N[C@@H](Cc1c[nH]cn1)C(=O)N[C@@H](CCCCN)C(=O)N[C@@H](CC(C)C)C(=O)N[C@@H](CCC(N)=O)C(=O)N[C@H](C(=O)N[C@@H](Cc1ccc(O)cc1)C(=O)N1CCC[C@H]1C(=O)N[C@@H](CCCNC(=N)N)C(=O)N[C@H](C(=O)N[C@@H](CC(N)=O)C(=O)N[C@H](C(=O)NCC(=O)N[C@@H](CO)C(=O)NCC(=O)N[C@H](C(=O)N1CCC[C@H]1C(N)=O)[C@@H](C)O)[C@@H](C)O)[C@@H](C)O)[C@@H](C)O [Salmon calcitonin, reference compound]

Solubility ([2]; pH 3.0): ≧200 μM
Solubility ([2]; pH 4.0): ≧200 μM
Solubility ([2]; pH 5.0): ≧200 μM
Solubility ([2]; pH 6.0): ≧200 μM
Solubility ([2]; pH 6.5): ≧200 μM
Solubility ([2]; pH 7.0): ≧200 μM
Solubility ([2]; pH 7.5): ≧200 μM
Solubility ([2]; pH 8.0): ≧200 μM
PK rat iv T½ ([1]; i.v.): 6 h
PK rat sc T½ ([1]; s.c.): 13 h
Compound: CC(C)C[C@H](NC(=O)[C@H](C)NC(=O)[C@H](C)NC(=O)[C@@H](NC(=O)[C@H](CO)NC(=O)[C@H](CC(C)C)NC(=O)[C@H](CCC(=O)O)NC(=O)[C@H](CO)NC(=O)[C@H](C)NC(=O)[C@H](CCC(=O)O)NC(=O)COCCOCCNC(=O)COCCOCCNC(=O)COCCOCCNC(=O)COCCOCCNC(=O)CC[C@H](NC(=O)CC[C@H](NC(=O)CCCCCCCCCCCCC(=O)O)C(=O)O)C(=O)O)[C@@H](C)O)C(=O)NCC(=O)N[C@@H](CCCNC(=N)N)C(=O)N[C@@H](CC(C)C)C(=O)N[C@@H](CO)C(=O)N[C@@H](C)C(=O)N[C@@H](CCC(=O)O)C(=O)N[C@@H](CC(C)C)C(=O)N[C@@H](Cc1cnc[nH]1)C(=O)N[C@@H](CCC(=O)O)C(=O)N[C@@H](CC(C)C)C(=O)N[C@@H](C)C(=O)N[C@H](C(=O)N[C@@H](CC(C)C)C(=O)N1CCC[C@H]1C(=O)N[C@@H](CCCNC(=N)N)C(=O)N[C@H](C(=O)N[C@@H](CCC(=O)O)C(=O)N[C@H](C(=O)NCC(=O)N1CCC[C@H]1C(=O)N[C@@H](CCC(=O)O)C(=O)N[C@@H](CO)C(=O)N1CCC[C@H]1C(N)=O)[C@@H](C)O)[C@@H](C)O)[C@@H](C)O [compound 5, [N-terminal(C14 diacid-2xgGlu-4xOEG)]mimylin] ({C14 diacid-γGlu-γGlu-AEEA-AEEA-AEEA-AEEA}-EASELSTAALGRLSAELHELATLPRTETGPESP-NH2)

solubility at 18 h ([2]; bistrispropane buffer, pH 6.5): ≥ 200 µM
solubility at 18 h ([2]; bistrispropane buffer, pH 7.5): ≥ 200 µM
solubility at 18 h ([2]; bistrispropane buffer, pH 6.0): ≥ 200 µM
solubility at 18 h ([2]; bistrispropane buffer, pH 7.0): ≥ 200 µM
solubility at 18 h ([2]; bistrispropane buffer, pH 8.0): ≥ 200 µM
solubility at 18 h ([2]; glycylglycine buffer, pH 3.0): 6 µM (≈ 21.8 µg/mL)
solubility at 18 h ([2]; glycylglycine buffer, pH 5.0): ≥ 200 µM
EC50 [3]: 0.006 nM
EC50 [4]: 0.012 nM
EC50 [5]: 0.028 nM
IC50 [6]: 1.65 nM
Compound: CC(C)C[C@H](NC(=O)[C@H](CCCNC(=N)N)NC(=O)CNC(=O)[C@@H](NC(=O)[C@@H](NC(=O)[C@H](C)NC(=O)[C@@H](NC(=O)[C@H](CO)NC(=O)[C@@H](NC(=O)[C@H](CCC(=O)O)NC(=O)[C@H](CO)NC(=O)[C@H](C)NC(=O)CC[C@H](NC(=O)CCCCCCCCCCCCCCCCC(=O)O)C(=O)O)C(C)C)[C@@H](C)O)C(C)C)C(C)C)C(=O)N[C@@H](CO)C(=O)N[C@@H](C)C(=O)N[C@@H](CCC(=O)O)C(=O)N[C@@H](CC(C)C)C(=O)N[C@@H](Cc1c[nH]cn1)C(=O)N[C@@H](CCC(=O)O)C(=O)N[C@H](C(=O)N[C@@H](C)C(=O)N[C@H](C(=O)N[C@@H](CC(C)C)C(=O)N1CCC[C@H]1C(=O)N[C@@H](CCCNC(=N)N)C(=O)N[C@H](C(=O)N[C@@H](CCC(=O)O)C(=O)N[C@H](C(=O)NCC(=O)N[C@@H](CO)C(=O)NCC(=O)N[C@@H](CO)C(=O)N1CCC[C@H]1C(N)=O)[C@@H](C)O)[C@@H](C)O)[C@@H](C)O)C(C)C [compound 102, [N-terminal(C18 diacid-gGlu), des1, 5V, 9V, 10V, 20V, 30S, 31G]mimylin] ({C18 diacid-γGlu}-ASEVSTAVVGRLSAELHEVATLPRTETGSGSP-NH2)

From patent US9593149B2, “Amylin and calcitonin receptor agonist” (Novo Nordisk A/S, priority 2014, dated 2017)
